Measurements: patent US11244760B2, “Prediction device based on inter-organ cross talk system” (KARYDO THERAPEUTIX, INC., priority 2015, dated 2022)
“And” between values parts separate entries of the source, which are not always exact repeats. Identical values can stand only once.

Tests used:
[1] = system: Saa1; assay: D-iOrgans real-time PCR, STZ/Control relative expression, Saa1; type: in vivo, mouse; conditions: liver of the STZ administration mice
Procedure: (§1) 1 μg of total RNA obtained from each tissue was used as a template for cDNA synthesis, and cDNA was synthesized using Oligo dT20 primer according to the standard protocol of Superscript III First-Strand Synthesis Supermix (Life Technologies). After the synthesized cDNA was diluted 20-fold with 10-fold diluted TE buffer (10 mM Tris-HCl, pH 8.0, 0.1 mM EDTA), real-time PCR was performed with a […] (Roche) according to the standard protocol of LightCycler 480 SYBR Green I Master (Roche) and Cp values were measured. The relative expression level of each gene relative to the reference gene was calculated by comparing the Cp value obtained for each gene with the Cp value for β2-microglobulin (B2m) or Maea as a reference gene, and MI/Sham was determined. However, with the primer set for Hba-a, Hba-a1 and Hba-a2 cannot be distinguished in PCR, and with the primer set for Hbb-b, Hbb-bs, and Hbb-bt cannot be distinguished in PCR. […]
(§2) Real-time PCR was conducted according to the procedure described in 1-4 (4) of “I. iOrgans” to measure Cp values. The relative expression level of each gene relative to the reference gene was calculated by comparing the Cp value obtained for each gene with the Cp value for β2-microglobulin (B2m) or Maea as a reference gene to, and STZ/Control was determined. […]

[2] = administered to a mouse for a week or more; cited from earlier work
[3] = Blood glucose level after administration of STZ (simple blood glucose meter, tail vein); type: in vivo, mouse; conditions: STZ 75 mg/kg intraperitoneally for 3 consecutive days, 4-week-old male C57BL/6NCr Slc mice, fasted overnight; individual animals
Procedure: (§3) 0.01% citrate buffer solution (pH 4.5) of streptozotocin (STZ) was intraperitoneally administered to 4-week-old male C57BL/6NCr Slc mice in an amount of 75 mg/kg in terms of STZ for 3 consecutive days (administered solution amount: 10 mL/kg). 0.01% citrate buffer solution (pH 4.5), which is a solvent, was intraperitoneally administered to the control group for 3 consecutive days (administered solution amount: 10 mL/kg). The animals from which the organs and tissue were to be collected were fasted overnight from the day before dissection. On the day of dissection, the tail vein of each mouse was cut, and the blood glucose level was measured with a simple blood glucose meter. On the following day, the mice were euthanized by cervical dislocation without anesthesia, and the organs and tissue were collected. After the wet weights of the collected organs and tissue were measured, the organs and tissue were rapidly frozen in liquid nitrogen and stored at −80° C.

[4] = Body weight at dissection after administration of STZ; type: in vivo, mouse; conditions: STZ 75 mg/kg intraperitoneally for 3 consecutive days, 4-week-old male C57BL/6NCr Slc mice; individual animals
Procedure: as §3

[5] = system: Hamp; assay: D-iOrgans real-time PCR, STZ/Control relative expression, Hamp; type: in vivo, mouse
Procedure: as §1, §2

CN(N=O)C(=O)N[C@H]1C(O)O[C@H](CO)[C@@H](O)[C@@H]1O (mixture of isomers) [STZ, streptozotocin]
Expression of Saa1 in the liver (STZ/Control) [1]: increase | Glycemic state after long administration [2]: becomes hyperglycemic | Blood glucose [3]: 65 mg/dL and 83 mg/dL and 42 mg/dL | Body weight at dissection [4]: 12.8 g (2×) and 10.3 g | Expression of Hamp in the heart (STZ/Control) ([5]; heart, STZ administration mice, day after 3 days of STZ): increase | Predicted side effect in the heart from Hamp expression ([5]; inferred from known function of Hamp (iron metabolism)): decrease the amount of iron in cardiac cells
